Biological target: T1, GR (Homo sapiens, UniProt P04150)
T1 construct: expressed in transfected cells; host or cells: CHO-K1 (CHO-K1-GR-MMTV-Luc reporter cells)
T1 sequence (P04150 1-777): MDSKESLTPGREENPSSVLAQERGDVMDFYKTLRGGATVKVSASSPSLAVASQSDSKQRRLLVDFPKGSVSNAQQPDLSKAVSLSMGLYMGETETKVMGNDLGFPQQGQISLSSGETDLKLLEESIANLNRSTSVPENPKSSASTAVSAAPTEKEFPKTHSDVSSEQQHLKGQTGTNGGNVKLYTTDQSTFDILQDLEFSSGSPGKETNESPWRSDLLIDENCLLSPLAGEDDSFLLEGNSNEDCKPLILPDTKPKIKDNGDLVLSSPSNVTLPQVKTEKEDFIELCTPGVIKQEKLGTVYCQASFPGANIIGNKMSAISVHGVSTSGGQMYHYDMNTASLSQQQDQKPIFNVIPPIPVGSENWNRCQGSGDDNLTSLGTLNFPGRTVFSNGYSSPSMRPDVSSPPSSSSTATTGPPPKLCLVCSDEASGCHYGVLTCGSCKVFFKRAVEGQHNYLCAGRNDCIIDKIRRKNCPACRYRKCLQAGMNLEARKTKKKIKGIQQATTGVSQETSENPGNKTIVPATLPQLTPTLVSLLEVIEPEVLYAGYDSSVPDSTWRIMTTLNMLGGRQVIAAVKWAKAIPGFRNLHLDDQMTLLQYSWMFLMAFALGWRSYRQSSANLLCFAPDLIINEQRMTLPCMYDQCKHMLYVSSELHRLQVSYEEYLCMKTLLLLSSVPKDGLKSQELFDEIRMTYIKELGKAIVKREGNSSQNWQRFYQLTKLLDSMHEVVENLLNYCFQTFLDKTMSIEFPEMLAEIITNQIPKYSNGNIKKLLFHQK
Assay: In Vitro GR Luciferase Reporter Assay (antagonist assay)
Type: cell-based
Settings: CHO-K1-GR-MMTV-Luc reporter cells, 10 nM Dexamethasone, 18-24 hours
Protocol: Cell Line: CHO-K1-GR-MMTV-Luc reporter cells
Culture Media: DMEM (with phenol red)+10% FBS
Assay Media: DMEM (without phenol red)+10% CSS
Culture CHO-K1-GR-MMTV-Luc reporter cells in 15 cm plates in Culture Media at conditions less than 90% confluence.
Prepare 200×DMSO 1:5 serial dilutions of control and test compounds in 96-well non-sterile V bottom plate in DMSO, 8 serial dilutions for each compound.
Add compounds: 5 ul of assay media diluted compounds were added to appropriate wells and followed a quick spin (1000 rpm, 10 sec) to bring media and cells to the bottom of plate. The plates were covered with SealMate film to avoid evaporation and placed in 37° C. incubator for approximately 18-24 hours.
Read plates: Equilibrate appropriate amount of Promega OneGlo luciferase reagent to room temperature. Remove the plates from incubator and add 25 uL of OneGlo reagent/well by multiple channel pipette and read the plates with Tecan F500 luminometer within 3 minutes.
The ability of the compounds disclosed herein to inhibit GR activity was quantified and the respective IC50 value was determined.

IC50	Structure (SMILES)
> 100 nM	CC#C[C@]1(O)CC[C@H]2[C@@H]3CCC4=CC(=O)CCC4=C3[C@@H](c3ccc(NS(=O)(=O)c4ccc(C)cc4)cc3)C[C@@]21C
> 100 nM	CC#C[C@]1(O)CC[C@H]2[C@@H]3CCC4=CC(=O)CCC4=C3[C@@H](c3cccc(C(C)O)c3)C[C@@]21C (some centres unmarked)
< 100 nM	CC#C[C@]1(O)CC[C@H]2[C@@H]3CCC4=CC(=O)CCC4=C3[C@@H](c3cccc(C4CC4)c3)C[C@@]21C
< 100 nM	CC#C[C@]1(O)CC[C@H]2[C@@H]3CCC4=CC(=O)CCC4=C3[C@@H](c3cccc(CC)c3)C[C@@]21C
< 100 nM	CC#C[C@]1(O)CC[C@H]2[C@@H]3CCC4=CC(=O)CCC4=C3[C@@H](c3cccc(COC)c3)C[C@@]21C
> 100 nM	CC#C[C@]1(O)CC[C@H]2[C@@H]3CCC4=CC(=O)CCC4=C3[C@@H](c3cccc(OC(C)C)c3)C[C@@]21C
> 100 nM	CC#C[C@]1(O)CC[C@H]2[C@@H]3CCC4=CC(=O)CCC4=C3[C@@H](c3cccc(C(C)(C)C)c3)C[C@@]21C
< 100 nM	CC#C[C@]1(O)CC[C@H]2[C@@H]3CCC4=CC(=O)CCC4=C3[C@@H](c3ccc(C)c(F)c3)C[C@@]21C
< 100 nM	CC#C[C@]1(O)CC[C@H]2[C@@H]3CCC4=CC(=O)CCC4=C3[C@@H](c3ccc(C(C)C)c(OC)c3)C[C@@]21C
< 100 nM	CC#C[C@]1(O)CC[C@H]2[C@@H]3CCC4=CC(=O)CCC4=C3[C@@H](c3ccc(C)c(OC)c3)C[C@@]21C
< 100 nM	CC#C[C@]1(O)CC[C@H]2[C@@H]3CCC4=CC(=O)CCC4=C3[C@@H](c3ccc(C)c(N(C)C)c3)C[C@@]21C
< 100 nM	CC#C[C@]1(O)CC[C@H]2[C@@H]3CCC4=CC(=O)CCC4=C3[C@@H](c3ccc(OC)c(C(C)C)c3)C[C@@]21C
> 100 nM	CC#C[C@]1(O)CC[C@H]2[C@@H]3CCC4=CC(=O)CCC4=C3[C@@H](c3ccc(C)c(N4CCC4)c3)C[C@@]21C
> 100 nM	CC#C[C@]1(O)CC[C@H]2[C@@H]3CCC4=CC(=O)CCC4=C3[C@@H](c3ccc(F)c(OC)c3)C[C@@]21C
> 100 nM	CC#C[C@]1(O)CC[C@H]2[C@@H]3CCC4=CC(=O)CCC4=C3[C@@H](c3ccc(Cl)c(N(C)C)c3)C[C@@]21C
> 100 nM	CC#C[C@]1(O)CC[C@H]2[C@@H]3CCC4=CC(=O)CCC4=C3[C@@H](c3ccc(F)c(N(C)C)c3)C[C@@]21C
> 100 nM	CC#C[C@]1(O)CC[C@H]2[C@@H]3CCC4=CC(=O)CCC4=C3[C@@H](c3ccc(Cl)c(C4CC4)c3)C[C@@]21C
< 100 nM	CC#C[C@]1(O)CC[C@H]2[C@@H]3CCC4=CC(=O)CCC4=C3[C@@H](c3c(F)cc(N4CCOCC4)cc3F)C[C@@]21C
< 100 nM	CC#C[C@]1(O)CC[C@H]2[C@@H]3CCC4=CC(=O)CCC4=C3[C@@H](c3c(F)cc(N4CCCC4)cc3F)C[C@@]21C
< 100 nM	CC#C[C@]1(O)CC[C@H]2[C@@H]3CCC4=CC(=O)CCC4=C3[C@@H](c3c(F)cc(N(C)CC)cc3F)C[C@@]21C
< 100 nM	CC#C[C@]1(O)CC[C@H]2[C@@H]3CCC4=CC(=O)CCC4=C3[C@@H](c3cc(F)c(N(C)C)c(F)c3)C[C@@]21C
< 100 nM	CC#C[C@]1(O)CC[C@H]2[C@@H]3CCC4=CC(=O)CCC4=C3[C@@H](c3c(F)cc(CC)cc3F)C[C@@]21C
< 100 nM	CC#C[C@]1(O)CC[C@H]2[C@@H]3CCC4=CC(=O)CCC4=C3[C@@H](c3cc(C)c(N(C)C)c(F)c3)C[C@@]21C
< 100 nM	CC#C[C@]1(O)CC[C@H]2[C@@H]3CCC4=CC(=O)CCC4=C3[C@@H](c3c(F)cc(C)cc3F)C[C@@]21C
< 100 nM	CC#C[C@]1(O)CC[C@H]2[C@@H]3CCC4=CC(=O)CCC4=C3[C@@H](c3cc(F)c(N(C)C)cc3F)C[C@@]21C

IC50	Structure (SMILES)
< 100 nM	CC#C[C@]1(O)CC[C@H]2[C@@H]3CCC4=CC(=O)CCC4=C3[C@@H](c3cc(F)c(OC)c(F)c3)C[C@@]21C
< 100 nM	CC#C[C@]1(OC(C)=O)CC[C@H]2[C@@H]3CCC4=CC(=O)CCC4=C3[C@@H](c3cc(F)c(C)c(F)c3)C[C@@]21C
> 100 nM	CC#C[C@]1(OC(=O)CC)CC[C@H]2[C@@H]3CCC4=CC(=O)CCC4=C3[C@@H](c3cc(F)c(C)c(F)c3)C[C@@]21C
> 100 nM	CC#C[C@]1(OC)CC[C@H]2[C@@H]3CCC4=CC(=O)CCC4=C3[C@@H](c3cc(F)c(C)c(F)c3)C[C@@]21C
< 100 nM	CC#C[C@]1(O)CC[C@H]2[C@@H]3CCC4=CC(=O)CCC4=C3[C@@H](c3ccc4c(c3)OCCCO4)C[C@@]21C
< 100 nM	CC#C[C@]1(O)[C@H](C)C[C@H]2[C@@H]3CCC4=CC(=O)CCC4=C3[C@@H](c3c(F)cc(N4CCOCC4)cc3F)C[C@@]21C
< 100 nM	CC#C[C@]1(O)[C@H](C)C[C@H]2[C@@H]3CCC4=CC(=O)CCC4=C3[C@@H](c3c(F)cc(N(C)C)cc3F)C[C@@]21C
< 100 nM	CC#C[C@]1(O)C2(CC2)C[C@H]2[C@@H]3CCC4=CC(=O)CCC4=C3[C@@H](c3ccc(S(=O)(=O)N(C)C)cc3)C[C@@]21C
< 100 nM	CC#C[C@]1(O)[C@H](C)C[C@H]2[C@@H]3CCC4=CC(=O)CCC4=C3[C@@H](c3ccc(C)c(F)c3)C[C@@]21C
< 100 nM	CC#C[C@]1(O)[C@H](C)C[C@H]2[C@@H]3CCC4=CC(=O)CCC4=C3[C@@H](c3ccc(S(=O)(=O)N(C)C)cc3)C[C@@]21C
< 100 nM	CC#C[C@]1(O)C2(CC2)C[C@H]2[C@@H]3CCC4=CC(=O)CCC4=C3[C@@H](c3c(F)cc(N(C)C)cc3F)C[C@@]21C
< 100 nM	CC#C[C@]1(O)[C@H](C)C[C@H]2[C@@H]3CCC4=CC(=O)CCC4=C3[C@@H](c3c(F)cc(N4CCC4)cc3F)C[C@@]21C
< 100 nM	CC#C[C@]1(O)[C@H](C)C[C@H]2[C@@H]3CCC4=CC(=O)CCC4=C3[C@@H](c3cc(F)c(N(C)C)c(F)c3)C[C@@]21C
> 100 nM	CC#C[C@]1(O)[C@H](CC)C[C@H]2[C@@H]3CCC4=CC(=O)CCC4=C3[C@@H](c3ccccc3)C[C@@]21C
> 100 nM	CC#C[C@]1(O)[C@H](C)C[C@H]2[C@@H]3CCC4=CC(=O)CCC4=C3[C@@H](c3ccc(S(=O)(=O)C(C)(C)C)cc3)C[C@@]21C
> 100 nM	CC#C[C@]1(O)[C@H](C)C[C@H]2[C@@H]3CCC4=CC(=O)CCC4=C3[C@@H](c3cc(F)c(C)c(F)c3)C[C@@]21C
< 100 nM	[2H]C([2H])([2H])C#C[C@]1(O)CC[C@H]2[C@@H]3CCC4=CC(=O)CCC4=C3[C@@H](c3ccc4c(c3)OCCO4)C[C@@]21C
< 100 nM	CC#C[C@]1(O)CC[C@H]2[C@@H]3CCC4=CC(=O)CCC4=C3[C@@H](c3ccc(S(=O)(=O)N4CCCCC4)cc3)C[C@@]21C [drawing 181]
< 100 nM	CC#C[C@]1(O)CC[C@H]2[C@@H]3CCC4=CC(=O)CCC4=C3[C@@H](c3ccc(S(=O)(=O)C(C)(C)C)cc3)C[C@@]21C [drawing 182]
< 100 nM	CC#C[C@]1(O)CC[C@H]2[C@@H]3CCC4=CC(=O)CCC4=C3[C@@H](c3cccc(C(C)C)c3)C[C@@]21C [drawing 185]
< 100 nM	CC#C[C@]1(O)CC[C@H]2[C@@H]3CCC4=CC(=O)CCC4=C3[C@@H](c3cccc(OCC)c3)C[C@@]21C [drawing 186]
< 100 nM	CC#C[C@]1(O)CC[C@H]2[C@@H]3CCC4=CC(=O)CCC4=C3[C@@H](c3ccc(C)c(C)c3)C[C@@]21C [drawing 192]
< 100 nM	CC#C[C@]1(O)CC[C@H]2[C@@H]3CCC4=CC(=O)CCC4=C3[C@@H](c3cc(F)cc(F)c3)C[C@@]21C [drawing 196]
< 100 nM	CC#C[C@]1(O)CC[C@H]2[C@@H]3CCC4=CC(=O)CCC4=C3[C@@H](c3ccc(F)c(C#N)c3)C[C@@]21C [drawing 199]

Structure (SMILES)	IC50
CC#C[C@]1(O)CC[C@H]2[C@@H]3CCC4=CC(=O)CCC4=C3[C@@H](c3c(F)cc(OC)cc3F)C[C@@]21C	< 100 nM
